# Data published in ChEMBL document CHEMBL1201862, “PubChem BioAssay data set” (2004).
# Calls of active or inactive are those of the source.
# Tests used:
# [1] = MALME3 melanoma cell viability reduction, dose response, orthogonal assay for MITF inhibitor project, CellTiter-Glo luminescence, dry powder, set 5 (AID 651584); type: functional, cell-based; details: MALME-3
# [2] = MITF Measured in Cell-Based System Using Plate Reader - 2084-01_Inhibitor_Dose_DryPowder_Activity_Set6.; type: functional
# [3] = target: T1, Dual specificity protein phosphatase 6 (Rattus norvegicus, UniProt Q64346); assay: MKP-3 phosphatase inhibitors, primary screen, biochemical, rat enzyme, in vitro (AID 425)
# T1 sequence (Q64346 whole entry): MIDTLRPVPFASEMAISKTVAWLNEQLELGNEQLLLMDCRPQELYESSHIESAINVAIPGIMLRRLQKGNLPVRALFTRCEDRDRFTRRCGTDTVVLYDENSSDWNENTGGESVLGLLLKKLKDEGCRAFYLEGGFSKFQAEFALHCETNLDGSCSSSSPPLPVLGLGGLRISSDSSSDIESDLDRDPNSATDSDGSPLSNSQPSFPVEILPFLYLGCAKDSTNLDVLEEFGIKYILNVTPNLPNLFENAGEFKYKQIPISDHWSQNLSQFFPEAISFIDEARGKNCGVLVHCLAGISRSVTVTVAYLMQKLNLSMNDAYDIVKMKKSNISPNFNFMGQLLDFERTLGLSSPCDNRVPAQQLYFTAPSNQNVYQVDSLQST
# Streptokinase A = target: T2, Streptokinase A (Streptococcus pyogenes serotype M1, UniProt P10520); assay: S. pyogenes streptokinase expression inhibitors, potency, dose response, plasminogen activation absorbance, OD405 (AID 1914); type: functional, Streptococcus pyogenes M1 GAS;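 further: secreted streptokinase activity via plasminogen activation per viability signal from cell pellet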
# T2 sequence (P10520 whole entry): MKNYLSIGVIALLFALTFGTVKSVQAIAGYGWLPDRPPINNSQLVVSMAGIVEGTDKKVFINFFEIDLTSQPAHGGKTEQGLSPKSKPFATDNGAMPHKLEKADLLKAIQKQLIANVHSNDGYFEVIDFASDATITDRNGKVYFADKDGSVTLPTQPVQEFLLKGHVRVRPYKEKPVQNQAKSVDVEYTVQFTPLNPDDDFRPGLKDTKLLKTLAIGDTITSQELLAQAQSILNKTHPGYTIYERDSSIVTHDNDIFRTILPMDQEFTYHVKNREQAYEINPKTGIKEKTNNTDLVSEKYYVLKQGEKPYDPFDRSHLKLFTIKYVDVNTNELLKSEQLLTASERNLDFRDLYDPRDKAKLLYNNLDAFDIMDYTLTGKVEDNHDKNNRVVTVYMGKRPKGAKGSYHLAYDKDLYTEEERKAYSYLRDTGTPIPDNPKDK
# Misshapen-like kinase 1 = Misshapen-like kinase 1 (Homo sapiens, UniProt Q8N4C8); type: functional;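 further: kinome panel screen with MINK as the panel member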
# Chain of Misshapen-like kinase 1 (Q8N4C8 whole entry): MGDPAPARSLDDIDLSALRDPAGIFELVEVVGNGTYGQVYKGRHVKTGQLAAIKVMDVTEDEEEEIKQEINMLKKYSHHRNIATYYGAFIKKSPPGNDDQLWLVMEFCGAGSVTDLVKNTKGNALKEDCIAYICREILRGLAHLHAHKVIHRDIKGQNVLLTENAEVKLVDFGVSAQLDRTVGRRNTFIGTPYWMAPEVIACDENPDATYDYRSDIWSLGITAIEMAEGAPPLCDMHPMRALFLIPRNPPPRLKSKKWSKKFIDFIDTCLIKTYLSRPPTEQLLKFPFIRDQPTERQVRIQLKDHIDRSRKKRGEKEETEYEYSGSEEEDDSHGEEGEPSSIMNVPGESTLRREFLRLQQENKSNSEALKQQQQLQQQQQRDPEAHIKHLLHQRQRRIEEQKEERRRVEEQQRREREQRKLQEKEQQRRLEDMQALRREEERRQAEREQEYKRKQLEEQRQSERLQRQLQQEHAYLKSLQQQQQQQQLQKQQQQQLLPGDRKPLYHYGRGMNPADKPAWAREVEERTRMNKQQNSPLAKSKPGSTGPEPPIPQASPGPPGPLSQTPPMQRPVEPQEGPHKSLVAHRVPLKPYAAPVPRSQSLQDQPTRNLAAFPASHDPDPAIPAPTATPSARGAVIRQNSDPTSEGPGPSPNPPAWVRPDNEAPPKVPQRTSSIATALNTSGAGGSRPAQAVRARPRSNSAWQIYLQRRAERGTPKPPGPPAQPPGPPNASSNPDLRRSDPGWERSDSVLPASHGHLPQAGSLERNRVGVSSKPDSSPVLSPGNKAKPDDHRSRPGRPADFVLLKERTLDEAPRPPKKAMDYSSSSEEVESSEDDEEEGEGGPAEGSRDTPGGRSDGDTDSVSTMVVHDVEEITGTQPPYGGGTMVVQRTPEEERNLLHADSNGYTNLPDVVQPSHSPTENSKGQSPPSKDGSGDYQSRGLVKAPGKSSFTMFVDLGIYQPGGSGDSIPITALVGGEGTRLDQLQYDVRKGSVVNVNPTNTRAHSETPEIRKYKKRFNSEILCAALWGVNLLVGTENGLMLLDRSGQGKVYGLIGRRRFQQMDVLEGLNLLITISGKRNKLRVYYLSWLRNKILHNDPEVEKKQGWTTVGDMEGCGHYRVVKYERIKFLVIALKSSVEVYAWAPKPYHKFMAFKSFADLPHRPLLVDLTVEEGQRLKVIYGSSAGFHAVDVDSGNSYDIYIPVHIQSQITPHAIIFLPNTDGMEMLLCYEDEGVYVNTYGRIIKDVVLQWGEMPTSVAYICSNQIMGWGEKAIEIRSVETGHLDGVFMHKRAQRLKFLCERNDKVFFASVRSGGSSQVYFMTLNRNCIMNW
# [4] = target: Cyclin-dependent kinase 8 (Homo sapiens, UniProt P49336); assay: Navigating the Kinome. Panel member name: CDK8; type: functional
# Chain of Cyclin-dependent kinase 8 (P49336 whole entry): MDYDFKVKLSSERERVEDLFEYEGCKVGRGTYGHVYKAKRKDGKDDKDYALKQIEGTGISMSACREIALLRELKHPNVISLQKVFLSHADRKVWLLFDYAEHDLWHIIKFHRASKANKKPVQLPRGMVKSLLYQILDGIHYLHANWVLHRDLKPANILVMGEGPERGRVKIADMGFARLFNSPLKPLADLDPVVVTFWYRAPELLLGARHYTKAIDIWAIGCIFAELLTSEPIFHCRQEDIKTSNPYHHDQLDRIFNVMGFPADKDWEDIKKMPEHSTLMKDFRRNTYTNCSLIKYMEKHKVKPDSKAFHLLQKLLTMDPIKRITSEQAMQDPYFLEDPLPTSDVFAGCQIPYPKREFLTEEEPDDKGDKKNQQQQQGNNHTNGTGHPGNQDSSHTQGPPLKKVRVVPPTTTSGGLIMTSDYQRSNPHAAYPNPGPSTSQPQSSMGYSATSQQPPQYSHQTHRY
# Focal adhesion kinase 1 = Focal adhesion kinase 1 (Homo sapiens, UniProt Q05397); type: functional;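 further: measured as one member of a kinome panel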
# [5] = target: Serine/threonine-protein kinase MRCK alpha (Homo sapiens, UniProt Q5VT25); type: functional
# Chain of Serine/threonine-protein kinase MRCK alpha (Q5VT25 whole entry): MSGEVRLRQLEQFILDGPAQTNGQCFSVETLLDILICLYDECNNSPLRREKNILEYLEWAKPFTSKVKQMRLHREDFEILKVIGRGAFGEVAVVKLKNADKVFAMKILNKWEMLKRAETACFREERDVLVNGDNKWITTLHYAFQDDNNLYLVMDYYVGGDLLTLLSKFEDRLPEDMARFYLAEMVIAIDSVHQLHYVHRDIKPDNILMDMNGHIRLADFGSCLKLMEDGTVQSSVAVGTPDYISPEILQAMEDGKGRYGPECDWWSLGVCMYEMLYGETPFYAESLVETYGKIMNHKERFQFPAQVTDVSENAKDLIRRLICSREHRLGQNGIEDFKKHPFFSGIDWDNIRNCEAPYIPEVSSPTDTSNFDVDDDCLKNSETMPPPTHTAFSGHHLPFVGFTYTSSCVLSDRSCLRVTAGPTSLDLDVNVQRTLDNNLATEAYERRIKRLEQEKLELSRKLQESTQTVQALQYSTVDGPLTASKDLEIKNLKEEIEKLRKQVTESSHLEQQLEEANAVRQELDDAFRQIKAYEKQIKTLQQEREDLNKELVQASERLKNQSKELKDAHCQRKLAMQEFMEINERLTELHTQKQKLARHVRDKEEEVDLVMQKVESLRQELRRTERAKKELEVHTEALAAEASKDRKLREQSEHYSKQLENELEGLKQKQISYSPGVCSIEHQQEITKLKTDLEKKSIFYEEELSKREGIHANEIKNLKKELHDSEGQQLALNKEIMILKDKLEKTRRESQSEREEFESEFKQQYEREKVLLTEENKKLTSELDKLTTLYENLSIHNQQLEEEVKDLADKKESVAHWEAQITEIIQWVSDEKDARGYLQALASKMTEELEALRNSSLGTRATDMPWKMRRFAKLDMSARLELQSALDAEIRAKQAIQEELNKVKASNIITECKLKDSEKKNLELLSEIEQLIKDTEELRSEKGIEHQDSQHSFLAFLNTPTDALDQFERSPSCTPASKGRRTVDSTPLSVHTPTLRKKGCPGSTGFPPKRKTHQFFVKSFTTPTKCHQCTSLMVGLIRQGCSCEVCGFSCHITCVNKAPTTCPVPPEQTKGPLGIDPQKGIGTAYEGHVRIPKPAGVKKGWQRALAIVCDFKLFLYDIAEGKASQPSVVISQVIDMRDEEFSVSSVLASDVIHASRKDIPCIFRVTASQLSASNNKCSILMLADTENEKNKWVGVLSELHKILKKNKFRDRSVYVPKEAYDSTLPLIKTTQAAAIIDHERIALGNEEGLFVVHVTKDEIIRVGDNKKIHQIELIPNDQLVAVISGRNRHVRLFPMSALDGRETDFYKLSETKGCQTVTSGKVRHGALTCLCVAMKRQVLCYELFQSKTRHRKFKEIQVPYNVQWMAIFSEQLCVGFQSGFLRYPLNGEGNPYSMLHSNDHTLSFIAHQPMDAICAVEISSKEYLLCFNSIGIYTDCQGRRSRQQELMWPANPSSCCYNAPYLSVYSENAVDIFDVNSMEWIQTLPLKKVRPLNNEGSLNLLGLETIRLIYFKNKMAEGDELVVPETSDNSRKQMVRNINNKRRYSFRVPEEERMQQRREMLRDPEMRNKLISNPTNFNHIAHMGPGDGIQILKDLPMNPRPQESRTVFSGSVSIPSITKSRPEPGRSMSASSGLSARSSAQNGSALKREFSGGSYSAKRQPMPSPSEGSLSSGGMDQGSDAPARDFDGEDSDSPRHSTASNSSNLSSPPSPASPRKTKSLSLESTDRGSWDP
# [6] = target: Tyrosine-protein kinase Fer (Homo sapiens, UniProt P16591); type: functional;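 further: FER tested as one member of a kinome panel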
# [7] = target: Calcium/calmodulin-dependent protein kinase type II subunit delta (Homo sapiens, UniProt Q13557); type: functional
# Chain of Calcium/calmodulin-dependent protein kinase type II subunit delta (Q13557 whole entry): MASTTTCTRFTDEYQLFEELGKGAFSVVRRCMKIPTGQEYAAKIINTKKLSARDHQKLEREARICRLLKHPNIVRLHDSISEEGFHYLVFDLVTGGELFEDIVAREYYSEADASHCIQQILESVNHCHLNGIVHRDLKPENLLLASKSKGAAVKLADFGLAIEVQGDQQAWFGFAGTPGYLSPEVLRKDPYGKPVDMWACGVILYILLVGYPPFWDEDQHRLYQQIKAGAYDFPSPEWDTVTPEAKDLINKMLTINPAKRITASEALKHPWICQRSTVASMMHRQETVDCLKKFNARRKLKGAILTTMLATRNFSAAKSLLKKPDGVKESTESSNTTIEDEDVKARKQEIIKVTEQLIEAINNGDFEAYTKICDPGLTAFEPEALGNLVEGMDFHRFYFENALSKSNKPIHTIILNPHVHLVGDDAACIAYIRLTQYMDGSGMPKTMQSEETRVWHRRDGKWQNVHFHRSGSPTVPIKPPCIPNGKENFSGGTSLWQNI
# [8] = target: Vascular endothelial growth factor receptor 3 (Homo sapiens, UniProt P35916); type: functional;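 further: value from a kinome-wide profiling panel, with FLT4 as the panel member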
# [9] = target: Tyrosine-protein kinase JAK3 (Homo sapiens, UniProt P52333); type: functional
# [10] = target: Protein kinase C iota type (Homo sapiens, UniProt P41743); type: functional;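 further: measured within a kinome-wide kinase panel, PRKCI as panel member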
# Chain of Protein kinase C iota type (P41743 whole entry): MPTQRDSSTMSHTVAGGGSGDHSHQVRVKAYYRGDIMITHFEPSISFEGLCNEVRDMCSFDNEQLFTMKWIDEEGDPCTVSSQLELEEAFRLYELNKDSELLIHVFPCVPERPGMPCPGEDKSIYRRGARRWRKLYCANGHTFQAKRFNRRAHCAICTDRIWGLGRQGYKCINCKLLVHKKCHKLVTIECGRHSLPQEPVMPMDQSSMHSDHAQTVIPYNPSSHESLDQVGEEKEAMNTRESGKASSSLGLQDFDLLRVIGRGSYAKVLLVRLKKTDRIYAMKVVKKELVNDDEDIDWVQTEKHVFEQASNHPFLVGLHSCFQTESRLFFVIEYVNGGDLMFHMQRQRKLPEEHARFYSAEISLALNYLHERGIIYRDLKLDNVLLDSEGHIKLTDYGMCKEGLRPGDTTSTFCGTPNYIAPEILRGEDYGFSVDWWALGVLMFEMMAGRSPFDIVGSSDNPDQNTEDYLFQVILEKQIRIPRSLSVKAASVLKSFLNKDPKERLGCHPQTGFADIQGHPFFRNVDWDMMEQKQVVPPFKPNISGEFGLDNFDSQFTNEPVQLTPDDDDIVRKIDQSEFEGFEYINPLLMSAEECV
# [11] = target: Interleukin-1 receptor-associated kinase 4 (Homo sapiens, UniProt Q9NWZ3); type: functional
# Chain of Interleukin-1 receptor-associated kinase 4 (Q9NWZ3 whole entry): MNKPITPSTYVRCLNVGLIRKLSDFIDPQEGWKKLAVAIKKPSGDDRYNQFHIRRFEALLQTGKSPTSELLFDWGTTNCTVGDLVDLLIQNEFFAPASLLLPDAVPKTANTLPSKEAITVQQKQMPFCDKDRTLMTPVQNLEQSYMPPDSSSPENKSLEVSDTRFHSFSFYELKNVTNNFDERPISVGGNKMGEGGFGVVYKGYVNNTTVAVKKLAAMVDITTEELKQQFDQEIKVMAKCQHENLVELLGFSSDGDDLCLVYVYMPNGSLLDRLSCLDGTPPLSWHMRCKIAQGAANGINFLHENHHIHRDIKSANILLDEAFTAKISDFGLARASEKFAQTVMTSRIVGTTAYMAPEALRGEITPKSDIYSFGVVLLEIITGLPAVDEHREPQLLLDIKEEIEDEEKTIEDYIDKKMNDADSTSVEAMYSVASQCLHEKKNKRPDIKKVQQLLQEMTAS
smiles,measurement,setting,value
C=CCNC1=C(Cl)C(=O)c2ccccc2C1=O,AC50,[1],9.99 µM (active)
same,AC50,[2],1.56 µM (active)
CS(=O)(=O)c1ccc2c(c1)SC1=NC(=O)/C(=C/c3ccc(O)c(O)c3)C(=N)N12,IC50,[3],113 µM (not active)
CCOC(=O)C(C(=O)OCC)c1cc(Br)c2noc3c2c1C(=O)c1ccccc1-3,EC50,Streptokinase A,11.9 µM (active)
COc1ccc(C(=O)Nc2n[nH]c3ccc(-c4cn(Cc5ccccc5)nn4)cc23)cc1OC,Ki,Misshapen-like kinase 1,0.251 µM (active)
same,Ki,[4],> 3.98 µM (inactive)
same,Ki,Focal adhesion kinase 1,> 6.31 µM (inactive)
same,Ki,[5],6.31 µM (active)
same,Ki,[6],0.251 µM (active)
same,Ki,[7],0.794 µM (active)
same,Ki,[8],0.2 µM (active)
same,Ki,[9],1 µM (active)
same,Ki,[10],3.98 µM (active)
same,Ki,[11],2.51 µM (active)
